Source: the NIST ThermoML archive (doi:10.1016/j.fluid.2014.10.004)

Key:
[1] = 101.3 kPa, Liquid, Sing-around technique in a fixed-path interferometer
[2] = refractive index (Na D-line) (dimensionless); details: 101.33 kPa, Liquid, Standard Abbe refractometry
[3] = xn = mol fraction of the nth substance listed; details: 101.3 kPa, Liquid, Sing-around technique in a fixed-path interferometer
[4] = refractive index (Na D-line) (dimensionless); xn = mol fraction of the nth substance listed; details: 101.3 kPa, Liquid, Standard Abbe refractometry

ClC(Cl)C(Cl)Cl [1,1,2,2-tetrachloroethane]
Details	refractive index, 298.15 K	refractive index, 308.15 K	refractive index, 318.15 K	speed of sound, 298.15 K [m/s]	speed of sound, 308.15 K [m/s]	speed of sound, 318.15 K [m/s]
[1]	–	–	–	1150.6	1118.7	1087
[2]	1.49174	1.48654	1.48137	–	–	–

CCCCCl [1-chlorobutane]
Details	refractive index, 298.15 K	refractive index, 308.15 K	refractive index, 318.15 K	speed of sound, 298.15 K [m/s]	speed of sound, 308.15 K [m/s]	speed of sound, 318.15 K [m/s]
[1]	–	–	–	1119	1078	1037.3
[2]	1.39953	1.39413	1.38851	–	–	–

ClCCCCCl [1,4-dichlorobutane]
Details	refractive index, 298.15 K	refractive index, 308.15 K	refractive index, 318.15 K	speed of sound, 298.15 K [m/s]	speed of sound, 308.15 K [m/s]	speed of sound, 318.15 K [m/s]
[1]	–	–	–	1286.6	1251	1215.7
[2]	1.45224	1.44756	1.44279	–	–	–

ClCCCl [1,2-dichloroethane]
Details	refractive index, 298.15 K	refractive index, 308.15 K	refractive index, 318.15 K	speed of sound, 298.15 K [m/s]	speed of sound, 308.15 K [m/s]	speed of sound, 318.15 K [m/s]
[1]	–	–	–	1194.4	1156.1	1117.8
[2]	1.44206	1.43661	1.43109	–	–	–

C[N+](=O)[O-] [nitromethane]
Details	refractive index, 298.15 K	refractive index, 308.15 K	refractive index, 318.15 K	speed of sound, 298.15 K	speed of sound, 308.15 K	speed of sound, 318.15 K
[1]	–	–	–	1321.3 m/s [middle of 9 runs]	1281.9 m/s [middle of 7 runs]	1242.5 m/s [middle of 8 runs]
[2]	1.37951 [middle of 8 runs]	1.37473 [middle of 7 runs]	1.37001 [middle of 7 runs]	–	–	–

ClC(Cl)Cl [trichloromethane]
Details	refractive index, 298.15 K	refractive index, 308.15 K	refractive index, 318.15 K	speed of sound, 298.15 K [m/s]	speed of sound, 308.15 K [m/s]	speed of sound, 318.15 K [m/s]
[1]	–	–	–	984.42	950.45	916.63
[2]	1.44209	1.43598	1.42986	–	–	–

C[N+](=O)[O-] [nitromethane] + CCCCCl
Details	refractive index, 298.15 K	refractive index, 308.15 K	refractive index, 318.15 K	speed of sound, 298.15 K [m/s]	speed of sound, 308.15 K [m/s]	speed of sound, 318.15 K [m/s]
[3], x2 = 0	–	–	–	1321.5	1282.1	1242.8
[3], x2 = 0.1107	–	–	–	1273.7	1234.3	1195
[3], x2 = 0.2174	–	–	–	1236.5	1197.1	1157.8
[3], x2 = 0.3236	–	–	–	1207.6	1168.1	1128.9
[3], x2 = 0.3932	–	–	–	1191.9	1152.3	1112.8
[3], x2 = 0.4856	–	–	–	1174.5	1134.7	1094.9
[3], x2 = 0.5569	–	–	–	1163.5	1123.2	1083.1
[3], x2 = 0.6626	–	–	–	1149.3	1109.1	1068.9
[3], x2 = 0.7722	–	–	–	1137.6	1096.8	1056.6
[3], x2 = 0.8646	–	–	–	1129.1	1088.3	1047.8
[4], x2 = 0	1.37917	1.37447	1.3695	–	–	–
[4], x2 = 0.1107	1.38191	1.37698	1.3718	–	–	–
[4], x2 = 0.2174	1.38445	1.37936	1.37406	–	–	–
[4], x2 = 0.3236	1.38691	1.38174	1.37632	–	–	–
[4], x2 = 0.3932	1.38839	1.38321	1.37772	–	–	–
[4], x2 = 0.4856	1.39032	1.38511	1.37958	–	–	–
[4], x2 = 0.5569	1.39177	1.38656	1.38104	–	–	–
[4], x2 = 0.6626	1.39383	1.38853	1.38299	–	–	–
[4], x2 = 0.7722	1.39577	1.39045	1.3848	–	–	–
[4], x2 = 0.8646	1.39729	1.39196	1.38635	–	–	–

ClC(Cl)C(Cl)Cl [1,1,2,2-tetrachloroethane] + C[N+](=O)[O-]
Details	refractive index, 298.15 K	refractive index, 308.15 K	refractive index, 318.15 K	speed of sound, 298.15 K [m/s]	speed of sound, 308.15 K [m/s]	speed of sound, 318.15 K [m/s]
[3], x1 = 0.0711	–	–	–	1293.1	1254.8	1216.6
[3], x1 = 0.1888	–	–	–	1257.7	1220.8	1184.5
[3], x1 = 0.2563	–	–	–	1241.8	1205.8	1170
[3], x1 = 0.3464	–	–	–	1224.1	1189.1	1154.2
[3], x1 = 0.4341	–	–	–	1209.8	1175.4	1141.1
[3], x1 = 0.5431	–	–	–	1194.8	1161.1	1127.6
[3], x1 = 0.6654	–	–	–	1180.7	1147.6	1114.7
[3], x1 = 0.8211	–	–	–	1165.3	1133	1100.8
[3], x1 = 0.9285	–	–	–	1156.2	1124.2	1092.3
[3], x1 = 1	–	–	–	1150.6	1118.7	1087
[4], x1 = 0.0711	1.39391	1.3893	1.38479	–	–	–
[4], x1 = 0.1888	1.41442	1.4099	1.40582	–	–	–
[4], x1 = 0.2563	1.42485	1.42025	1.4162	–	–	–
[4], x1 = 0.3464	1.43683	1.43222	1.42805	–	–	–
[4], x1 = 0.4341	1.44721	1.4425	1.43807	–	–	–
[4], x1 = 0.5431	1.45848	1.45366	1.44909	–	–	–
[4], x1 = 0.6654	1.46937	1.46448	1.4596	–	–	–
[4], x1 = 0.8211	1.48094	1.47589	1.47087	–	–	–
[4], x1 = 0.9285	1.48772	1.48262	1.47752	–	–	–
[4], x1 = 1	1.49174	1.48654	1.48137	–	–	–

ClCCCCl [1,3-dichloropropane]
Details	refractive index, 298.15 K	refractive index, 308.15 K	refractive index, 318.15 K	speed of sound, 298.15 K [m/s]	speed of sound, 308.15 K [m/s]	speed of sound, 318.15 K [m/s]
[1]	–	–	–	1236.5	1199.7	1163.2
[2]	1.44617	1.44123	1.43614	–	–	–

CCCCCCl [1-chloropentane]
Details	refractive index, 298.15 K	refractive index, 308.15 K	refractive index, 318.15 K	speed of sound, 298.15 K [m/s]	speed of sound, 308.15 K [m/s]	speed of sound, 318.15 K [m/s]
[1]	–	–	–	1164.2	1124.9	1085.8
[2]	1.41015	1.40501	1.39984	–	–	–

ClC(Cl)Cl [trichloromethane] + C[N+](=O)[O-]
x1 = 1
Details	refractive index, 298.15 K	refractive index, 308.15 K	refractive index, 318.15 K	speed of sound, 298.15 K [m/s]	speed of sound, 308.15 K [m/s]	speed of sound, 318.15 K [m/s]
[3]	–	–	–	984.42	950.45	916.63
[4]	1.44209	1.43598	1.42986	–	–	–

CC(Cl)(Cl)Cl [1,1,1-trichloroethane]
Details	refractive index, 298.15 K	refractive index, 308.15 K	refractive index, 318.15 K	speed of sound, 298.15 K [m/s]	speed of sound, 308.15 K [m/s]	speed of sound, 318.15 K [m/s]
[1]	–	–	–	962.94	928.68	894.71
[2]	1.43492	1.42908	1.42311	–	–	–

C[N+](=O)[O-] [nitromethane] + ClCCCl
Details	refractive index, 298.15 K	refractive index, 308.15 K	refractive index, 318.15 K	speed of sound, 298.15 K [m/s]	speed of sound, 308.15 K [m/s]	speed of sound, 318.15 K [m/s]
[3], x2 = 0	–	–	–	1321.2	1281.8	1242.5
[3], x2 = 0.0878	–	–	–	1298.2	1259	1220.1
[3], x2 = 0.1939	–	–	–	1279	1240.3	1201.6
[3], x2 = 0.2938	–	–	–	1264	1225.5	1187
[3], x2 = 0.3998	–	–	–	1246.1	1207.7	1169.4
[3], x2 = 0.5028	–	–	–	1236	1197.7	1159.5
[3], x2 = 0.6154	–	–	–	1229	1190.8	1152.5
[3], x2 = 0.7207	–	–	–	1218.7	1180.5	1142.2
[3], x2 = 0.8326	–	–	–	1207.6	1169.3	1131.1
[3], x2 = 0.9404	–	–	–	1201.6	1163.3	1125
[4], x2 = 0	1.37952	1.37482	1.37009	–	–	–
[4], x2 = 0.1132	1.38846	1.38351	1.37845	–	–	–
[4], x2 = 0.2235	1.39669	1.39148	1.38609	–	–	–
[4], x2 = 0.3249	1.40379	1.39839	1.39284	–	–	–
[4], x2 = 0.4672	1.41318	1.40777	1.40213	–	–	–
[4], x2 = 0.5586	1.4188	1.41343	1.40781	–	–	–
[4], x2 = 0.6264	1.42279	1.41742	1.41184	–	–	–
[4], x2 = 0.7349	1.42888	1.42345	1.41797	–	–	–
[4], x2 = 0.857	1.43522	1.42981	1.42424	–	–	–
[4], x2 = 0.923	1.43844	1.43304	1.42748	–	–	–

CCCCCl [1-chlorobutane] + C[N+](=O)[O-]
x1 = 1
Details	refractive index, 298.15 K	refractive index, 308.15 K	refractive index, 318.15 K	speed of sound, 298.15 K [m/s]	speed of sound, 308.15 K [m/s]	speed of sound, 318.15 K [m/s]
[3]	–	–	–	1119	1078	1037.3
[4]	1.39953	1.39413	1.38851	–	–	–

ClCCCCCl [1,4-dichlorobutane] + C[N+](=O)[O-]
Details	refractive index, 298.15 K	refractive index, 308.15 K	refractive index, 318.15 K	speed of sound, 298.15 K [m/s]	speed of sound, 308.15 K [m/s]	speed of sound, 318.15 K [m/s]
[3], x1 = 0.0825	–	–	–	1308.1	1269.3	1230.6
[3], x1 = 0.1759	–	–	–	1298.3	1260	1221.8
[3], x1 = 0.2825	–	–	–	1291.3	1253.5	1215.8
[3], x1 = 0.3815	–	–	–	1287.2	1249.9	1212.7
[3], x1 = 0.4815	–	–	–	1285	1248	1211.2
[3], x1 = 0.5911	–	–	–	1284	1247.3	1210.8
[3], x1 = 0.6898	–	–	–	1283.9	1247.5	1211.3
[3], x1 = 0.8208	–	–	–	1284.6	1248.6	1212.8
[3], x1 = 0.9262	–	–	–	1285.7	1249.9	1214.4
[3], x1 = 1	–	–	–	1286.6	1251	1215.7
[4], x1 = 0.0825	1.38965	1.38514	1.38078	–	–	–
[4], x1 = 0.1759	1.39985	1.39614	1.39174	–	–	–
[4], x1 = 0.2825	1.40987	1.40646	1.40219	–	–	–
[4], x1 = 0.3815	1.41799	1.41451	1.41005	–	–	–
[4], x1 = 0.4815	1.42515	1.42129	1.41679	–	–	–
[4], x1 = 0.5911	1.43204	1.4279	1.42357	–	–	–
[4], x1 = 0.6898	1.43765	1.43335	1.42901	–	–	–
[4], x1 = 0.8208	1.4443	1.43965	1.43512	–	–	–
[4], x1 = 0.9262	1.44906	1.44436	1.43974	–	–	–
[4], x1 = 1	1.45224	1.44756	1.44279	–	–	–
